Reference: US20240115554A1, “METHODS FOR TREATING OBSTRUCTIVE HYPERTROPHIC CARDIOMYOPATHY” (Cytokinetics, Incorporated, priority 2022, published 2024)
Where “and” joins values, the source holds several entries; their conditions need not be identical. Equal values may be shown once. Entries after “also recorded” stand apart in the source; their conditions may differ.

Experiments:
[1] = system: patients with symptomatic obstructive HCM (oHCM); test: Phase 2 trial: echocardiography (LVOT-G, LVEF, cardiac remodeling); format: in vivo, human; conditions: for patients achieving resting gradient <30 mmHg and post-Valsalva gradient <50 mmHg at Week 10 (complete hemodynamic response): n=14
Description: Cohort 3 included patients receiving disopyramide.
Since patient characteristics vary substantially in this disease, individualized dose titration to a pharmacodynamics (PD) response (reduction of the LVOT-G to <30 mmHg with preservation of LVEF >50%) was employed to maximize efficacy and safety.
Patients up-titrated to Dose 2 if either of the following conditions were met on echocardiography: (1) resting LVOT-G ≥30 mmHg and the biplane LVEF ≥50%; or (2) resting LVOT-G <30 mmHg, post-Valsalva LVOT-G ≥50 mmHg, and the biplane LVEF ≥50%. Otherwise, the patient remains on Dose 1. If LVEF is <50% at Week 2, the patient was down-titrated to placebo.
Patients were escalated to the next higher dose if either of the following conditions were met on echocardiography: (1) resting LVOT-G ≥30 mmHg and the biplane LVEF ≥50%; or (2) resting LVOT-G <30 mmHg, post-Valsalva LVOT-G ≥50 mmHg, and the biplane LVEF ≥50%. Otherwise, the patient remained on the same dose. If LVEF was <50% at Week 4, the patient was returned to a prior dose level or to placebo if the patient was on Dose 1.
Echocardiograms obtained every 2 weeks and 2 weeks after the last dose were analyzed for several key structural and physiologic metrics and N-terminal prohormone of brain natriuretic peptide (NT-proBNP).
Overall, treatment duration for each patient in the study was 10 weeks with an echocardiogram conducted 2 weeks after the last dose.
(§1) Secondary results from the clinical study included data from Cohort 3 (n=13). […] Overall, treatment duration for each patient in the study was 10 weeks with an echocardiogram conducted 2 weeks after the last dose. Efficacy endpoints included resting and provoked LVOT gradients, NYHA class, and NT-proBNP.

[2] = system: patients with symptomatic obstructive HCM (oHCM); test: Phase 2 trial: NYHA functional class; format: in vivo, human
Description: as §1

[3] = system: patients with symptomatic oHCM; test: Open-label extension: Kansas City Cardiomyopathy Questionnaire (KCCQ); format: in vivo, human
Method: Change in KCCQ scores from baseline, including OSS=overall summary score, CSS=clinical summary score, TSS=total symptom score, PLS=physical limitation score, SLS=social limitation score, QoL=quality of life, were determined. Patients were categorized with worsened (≤−5 points), unchanged (−5 to <5 points), small improvement (5 to <10 points), moderate to large improvement (10 to <20 points), and large to very large improvement (≥20 points) relative to baseline.

[4] = system: patients with symptomatic oHCM; test: Open-label extension: background therapy reduction/withdrawal (BTR/W); format: in vivo, human
Method: Patients were dosed following the protocol of Example 3a or Example 3b. Patients were classified as receiving SoC therapy (both first line and second line) if treated with at least one beta-blocker (BB), non-dihydropyridine calcium channel blocker (CCB), or disopyramide. […] Successful BTR/W was defined as at least a dose-reduction of one medication to ≤50% of baseline. Serial metrics were collected per protocol but side effects specifically related to SoC therapy were not.

[5] = system: patients with symptomatic oHCM; test: Open-label extension: global longitudinal strain (GLS) by echocardiography; format: in vivo, human; conditions: baseline −13.9%±3.2
Method: GLS analysis was performed using a vendor-neutral analysis package (TOMTEC® Imaging Systems).

[6] = system: patients with symptomatic oHCM; test: Open-label extension: SRT eligibility per guideline criteria; format: in vivo, human; conditions: Week 48 visit; 19 patients (42%) eligible at baseline
Description: There was a substantial reduction in peak resting and Valsalva LVOT-G from baseline to week 48 [ΔResting mean: −32 mmHg (±28); Δ Valsalva mean: −47 mmHg (±28)] (see FIG. 53 and FIG. 54, respectively). […] There was substantial improvement in NYHA class: by week 48, 88% of patients experienced ≥1 NYHA FC improvement while none had NYHA FC worsening (see FIG. 56). At baseline, 19 patients (42%) were eligible for SRT per guideline criteria of symptoms and hemodynamics, despite receiving beta-blocker, (78%) calcium channel blocker (18%), and disopyramide (22%). […] NT pro-BNP decreased from baseline to Week 48 (from a geometric mean [CV %] of 651.0 [160.4] to 111.1 [93.4] pg/mL), representing a […] reduction from baseline (p<0.0001).

cardiac myosin = cardiac myosin (Homo sapiens, UniProt P12883); test: Preclinical models: myocardial contractility; conditions: preclinically in vitro and in vivo
Description: This mechanism of action may be therapeutically effective in conditions characterized by excessive hypercontractility, such as HCM (e.g., obstructive HCM, also referred to as oHCM).

[7] = Cohort 3 (with disopyramide), n=13
[8] = baseline to week 10, pooled aficamten
[9] = pooled aficamten Cohorts 1 and 2

Sequence of cardiac myosin (P12883 whole entry): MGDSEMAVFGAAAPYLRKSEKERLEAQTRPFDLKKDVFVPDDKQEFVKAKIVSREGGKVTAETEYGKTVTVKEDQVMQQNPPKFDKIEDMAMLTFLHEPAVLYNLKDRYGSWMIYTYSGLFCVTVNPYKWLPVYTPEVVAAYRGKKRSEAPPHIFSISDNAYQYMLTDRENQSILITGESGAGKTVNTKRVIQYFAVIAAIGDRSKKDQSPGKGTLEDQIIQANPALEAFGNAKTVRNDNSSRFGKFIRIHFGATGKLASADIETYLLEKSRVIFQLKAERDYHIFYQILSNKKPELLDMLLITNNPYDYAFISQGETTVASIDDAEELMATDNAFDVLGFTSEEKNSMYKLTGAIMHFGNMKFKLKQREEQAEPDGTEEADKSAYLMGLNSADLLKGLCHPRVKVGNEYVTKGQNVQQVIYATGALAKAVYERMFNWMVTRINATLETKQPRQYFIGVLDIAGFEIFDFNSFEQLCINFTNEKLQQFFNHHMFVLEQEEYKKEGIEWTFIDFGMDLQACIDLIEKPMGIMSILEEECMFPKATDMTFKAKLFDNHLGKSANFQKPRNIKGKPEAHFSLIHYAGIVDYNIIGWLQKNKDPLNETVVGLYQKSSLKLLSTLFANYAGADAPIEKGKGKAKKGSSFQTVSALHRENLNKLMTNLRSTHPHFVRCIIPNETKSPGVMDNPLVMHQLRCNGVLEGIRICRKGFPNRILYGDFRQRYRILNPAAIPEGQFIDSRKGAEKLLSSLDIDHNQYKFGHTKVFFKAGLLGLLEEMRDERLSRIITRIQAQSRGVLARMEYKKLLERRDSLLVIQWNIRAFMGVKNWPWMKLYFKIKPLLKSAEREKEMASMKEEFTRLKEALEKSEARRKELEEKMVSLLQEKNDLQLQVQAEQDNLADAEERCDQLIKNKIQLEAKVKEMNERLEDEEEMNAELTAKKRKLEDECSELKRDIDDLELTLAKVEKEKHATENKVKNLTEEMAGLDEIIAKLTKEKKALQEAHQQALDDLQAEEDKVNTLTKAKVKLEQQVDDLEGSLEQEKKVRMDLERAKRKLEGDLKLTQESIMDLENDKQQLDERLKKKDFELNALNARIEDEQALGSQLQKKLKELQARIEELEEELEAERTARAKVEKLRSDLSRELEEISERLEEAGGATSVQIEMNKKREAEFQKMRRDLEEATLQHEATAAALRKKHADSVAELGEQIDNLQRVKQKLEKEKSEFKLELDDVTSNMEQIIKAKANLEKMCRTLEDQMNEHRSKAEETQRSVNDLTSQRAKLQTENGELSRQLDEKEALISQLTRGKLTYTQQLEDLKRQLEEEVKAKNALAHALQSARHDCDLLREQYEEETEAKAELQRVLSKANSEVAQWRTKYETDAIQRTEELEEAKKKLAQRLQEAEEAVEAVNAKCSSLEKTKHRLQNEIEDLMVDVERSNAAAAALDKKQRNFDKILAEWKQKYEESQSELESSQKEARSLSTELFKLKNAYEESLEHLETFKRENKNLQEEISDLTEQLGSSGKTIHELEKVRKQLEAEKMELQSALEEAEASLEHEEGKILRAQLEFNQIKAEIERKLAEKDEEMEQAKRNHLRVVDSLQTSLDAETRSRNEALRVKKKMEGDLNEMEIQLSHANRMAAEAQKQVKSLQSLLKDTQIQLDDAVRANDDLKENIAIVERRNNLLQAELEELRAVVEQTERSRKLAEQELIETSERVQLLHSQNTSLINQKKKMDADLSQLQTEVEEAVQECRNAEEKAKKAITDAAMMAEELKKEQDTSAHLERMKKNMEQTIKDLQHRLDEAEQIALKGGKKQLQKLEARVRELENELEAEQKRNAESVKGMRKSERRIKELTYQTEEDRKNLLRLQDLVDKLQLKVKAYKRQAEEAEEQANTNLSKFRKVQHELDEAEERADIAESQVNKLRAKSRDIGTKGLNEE
Sequence of cardiac myosin (P08590 whole entry partner): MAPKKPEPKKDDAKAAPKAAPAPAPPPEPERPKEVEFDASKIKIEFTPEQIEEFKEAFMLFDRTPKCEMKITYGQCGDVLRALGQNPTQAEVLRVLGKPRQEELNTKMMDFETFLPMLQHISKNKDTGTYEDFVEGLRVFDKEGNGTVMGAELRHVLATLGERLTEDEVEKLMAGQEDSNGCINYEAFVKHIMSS
Sequence of cardiac myosin (P10916 whole entry partner): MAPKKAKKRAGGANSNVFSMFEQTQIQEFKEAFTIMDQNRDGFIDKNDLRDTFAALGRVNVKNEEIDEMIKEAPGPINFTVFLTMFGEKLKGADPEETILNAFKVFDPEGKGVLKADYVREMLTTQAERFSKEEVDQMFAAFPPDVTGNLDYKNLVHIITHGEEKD

## CCc1nc(-c2ccc3c(c2)CC[C@H]3NC(=O)c2cnn(C)c2)no1 [aficamten, (R)—N-(5-(5-ethyl-1,2,4-oxadiazol-3-yl)-2,3-dihydro-1H-inden-1-yl)-1-methyl-1H-pyrazole-4-carboxamide]
[1]; Cohort 1 (5, 10, 15 mg)
  patients achieving resting gradient <30 mmHg and post-Valsalva gradient <50 mmHg at Week 10 (complete hemodynamic response): 78.6% and 79%
[1]; Cohort 1 (n=14), 53.8 mmHg at baseline
  average resting LVOT-G at 10 weeks: 13.4 mmHg
[1]; Cohort 1 (n=14), 77.4 mmHg at baseline
  average Valsalva LVOT-G at 10 weeks: 38.1 mmHg
[1]; Cohort 1 (n=14), baseline 72.8% (73±6%)
  average ejection fraction at 10 weeks: 67.3% and 67±9%
[1]; Cohort 2 (10, 20, 30 mg)
  patients achieving resting gradient <30 mmHg and post-Valsalva gradient <50 mmHg at Week 10 (complete hemodynamic response): 92.9% and 93%
[1]; Cohort 2 (n=14), 58.2 mmHg at baseline
  average resting LVOT-G at 10 weeks: 15.1 mmHg
[1]; Cohort 2 (n=14), 82.3 mmHg at baseline
  average Valsalva LVOT-G at 10 weeks: 29.8 mmHg
[1]; Cohort 2 (n=14), baseline 75.4% (75±6%)
  average ejection fraction at 10 weeks: 64.1% and 64±8%
[1]; Cohort 3 (Ten of 13)
  patients with complete or partial response in LVOT gradients at end of treatment: 77%
[1]; Cohort 3 (Three patients)
  patients with temporary complete or partial response during the treatment period: 23%
[1]; [7]
  mean (SD) reduction of resting LVOT-G at Week 10: 27 mmHg
  mean reduction of Valsalva LVOT-G at Week 10: 28 mmHg
[1]; Cohort 3 (with disopyramide), baseline 74±7.5%
  mean LVEF at end of 10-week treatment: 69±7.2%
[1]; Cohorts 1 and 2
  dose dependence of reductions in LVOT-G: dose dependent
  onset of reductions in LVOT-G: within two weeks of initiating treatment
[1]; Cohorts 1 and 2, dose vs EF over time
  mean reduction in EF per mg of aficamten: −0.6 % per mg
[1]; [8]
  change in e′: 0.5 cm/s
  change in lateral E/e′: −2.0 (±1.1)
[1]; week 10
  LVMI mean difference, aficamten vs placebo: 8.1 g/m^2
[2]; Cohort 2
  patients with improvement in NYHA class by one or more classes: 64%
[2]; Cohort 3
  NYHA improvement in baseline class III patients: all baseline NYHA class III patients improved by ≥1 class
[2]; Cohort 3 (Eleven patients)
  patients with ≥1 NYHA class improvement: 85%
[2]; Cohorts 1 and 2
  patients converted from class III to class II or I: 7 patients
[2]; [9]
  patients who improved from NYHA class III to I: one
  patients who improved from NYHA class III to II: 6 patients
[2]; pooled aficamten Cohorts 1 and 2 (15 of 28)
  patients with change in NYHA class of one or more classes: 53%
[3]; Week 12
  participants with clinically-important improvement (5 points on the KCCQ Overall Summary Score): 72.7%
  participants with very large clinical improvements in KCCQ: 36.4%
[3]; Week 24
  participants with clinically-important improvement (5 points on the KCCQ Overall Summary Score): 72.0%
  participants with very large clinical improvements in KCCQ: 40.0%
[3]; up to 6 months
  improvement in KCCQ domain scores: marked and sustained improvement in all KCCQ domain scores
[4]; 17 of 20 patients with attempted BTR/W
  patients achieving any successful BTR/W among those attempted: 85%
[4]; BTR/W
  patients who completely discontinued at least one SoC medication: 10 patients
  patients who withdrew from all SoC (aficamten monotherapy): 5 patients
[4]; post-BTR/W
  NT-pro B-type Natriuretic Peptide: 532 ± 934 pg/mL
  high-sensitivity troponin I: 5.1 ± 1.6 ng/L
[4]; post-BTR/W (N=14)
  mean HR after BTR/W: 74±10 bpm
  mean Valsalva LVOT-G after BTR/W: 42±26 mmHg
[4]; pre- vs post-BTR/W (N=14)
  increase in Valsalva LVOT-G after BTR/W: 15 mmHg
  increase in resting HR after BTR/W: 12 bpm
[4]; pre-BTR/W
  NT-pro B-type Natriuretic Peptide: 321 ± 424 pg/mL
  high-sensitivity troponin I: 4.8 ± 1.8 ng/L
[4]; reinstitution of BB
  patients with unsuccessful attempted BTR/W: 3 patients
[5]; week 12 (n=27)
  GLS: −14.3±3.0%
[5]; week 36-48 (n=27)
  GLS: −14.9%
[6]
  patients eligible for SRT per guideline criteria: none of these patients met these criteria; also recorded: eliminated SRT eligibility in all patients
Cardiac myosin
  effect on left ventricular contractility: reduced measures of left ventricular contractility
